ChEMBL document CHEMBL5543147, “Discovery and Characterization of a Novel Cereblon-Recruiting PRC1 Bridged PROTAC Degrader” (J Med Chem, 2024)
The source made the active and inactive calls. The rule behind the calls is not given here.

Experiments:
[1] = target: T1, von Hippel-Lindau disease tumor suppressor/Polycomb complex protein BMI-1 (Homo sapiens) (UniProt P40337+P35226); assay: PROTAC activity at […] in human K562 cells assessed as degradation of BMI1 protein expression at 1 to 10 uM incubated for 24 hrs by Western blotting analysis; type: cell-based; details: dose 1-10 µM
T1 sequence (P35226 whole entry, looked up): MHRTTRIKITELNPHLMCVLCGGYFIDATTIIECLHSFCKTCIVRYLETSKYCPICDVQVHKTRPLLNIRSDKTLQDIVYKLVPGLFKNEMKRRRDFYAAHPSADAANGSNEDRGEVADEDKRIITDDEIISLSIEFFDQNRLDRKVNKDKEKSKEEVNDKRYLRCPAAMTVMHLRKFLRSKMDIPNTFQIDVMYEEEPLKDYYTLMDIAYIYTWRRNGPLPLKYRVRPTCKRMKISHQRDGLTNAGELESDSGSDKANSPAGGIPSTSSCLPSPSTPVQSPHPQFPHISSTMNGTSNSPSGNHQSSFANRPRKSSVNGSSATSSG
T1 sequence (P40337 whole entry, looked up): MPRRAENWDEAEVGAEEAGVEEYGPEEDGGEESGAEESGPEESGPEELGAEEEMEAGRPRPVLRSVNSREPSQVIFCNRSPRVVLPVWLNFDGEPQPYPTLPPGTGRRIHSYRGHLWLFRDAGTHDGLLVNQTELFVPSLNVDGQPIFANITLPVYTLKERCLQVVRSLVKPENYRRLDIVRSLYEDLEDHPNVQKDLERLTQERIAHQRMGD

[2] = target: T2, Protein cereblon/E3 ubiquitin-protein ligase RING2 (Homo sapiens, UniProt Q96SW2+Q99496); assay: PROTAC activity at CRBN/RING1B in human K562 cells assessed as degradation of RING1B protein expression at 1 to 10 uM incubated for 24 hrs by Western blotting analysis; type: cell-based; details: dose 1-10 µM
T2 sequence (Q96SW2 whole entry): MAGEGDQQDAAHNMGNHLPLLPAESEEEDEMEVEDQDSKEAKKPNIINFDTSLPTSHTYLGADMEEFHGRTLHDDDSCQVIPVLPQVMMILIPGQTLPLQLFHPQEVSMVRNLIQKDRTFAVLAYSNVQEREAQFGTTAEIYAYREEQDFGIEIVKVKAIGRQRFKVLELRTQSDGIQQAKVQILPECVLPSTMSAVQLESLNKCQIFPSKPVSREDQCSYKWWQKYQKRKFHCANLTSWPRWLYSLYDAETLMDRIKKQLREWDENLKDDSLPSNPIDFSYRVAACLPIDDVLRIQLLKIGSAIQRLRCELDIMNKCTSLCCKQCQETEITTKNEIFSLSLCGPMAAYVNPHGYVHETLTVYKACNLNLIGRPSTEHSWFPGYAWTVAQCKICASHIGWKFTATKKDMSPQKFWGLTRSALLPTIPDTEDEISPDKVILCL
T2 sequence (Q99496 2-336 partner limits assumed): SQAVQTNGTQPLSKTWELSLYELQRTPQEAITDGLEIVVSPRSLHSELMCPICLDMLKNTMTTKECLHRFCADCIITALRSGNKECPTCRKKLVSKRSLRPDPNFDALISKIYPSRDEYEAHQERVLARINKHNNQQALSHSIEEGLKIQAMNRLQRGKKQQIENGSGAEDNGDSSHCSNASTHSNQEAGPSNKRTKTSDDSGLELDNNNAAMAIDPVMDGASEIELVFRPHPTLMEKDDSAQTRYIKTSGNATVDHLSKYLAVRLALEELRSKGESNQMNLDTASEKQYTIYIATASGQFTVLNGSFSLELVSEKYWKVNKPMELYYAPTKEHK

K562 [3] = assay: Induction of PRC2 degradation in human K562 cells assessed as reduction of H3K27me3 chromatin mark at 1 to 10 uM incubated for 24 hrs by Western blotting analysis; type: cell-based; details: dose 1-10 µM
K562 [4] = assay: Induction of PRC1 degradation in human K562 cells assessed as reduction of H2AK119ub chromatin mark at 1 to 10 uM incubated for 24 hrs by Western blotting analysis; type: cell-based; details: dose 1-10 µM
K562 [5] = assay: Antiproliferative activity against human K562 cells assessed as cell growth inhibition incubated for 7 days by WST-8 assay; type: functional; details: time 7.0 day
[6] = target: von Hippel-Lindau disease tumor suppressor/Polycomb protein EED (Homo sapiens, UniProt O75530+P40337); assay: PROTAC activity at VHL/EED in human KARPAS-422 cells assessed as degradation of EED protein expression by Western blotting analysis; type: cell-based
Sequence of von Hippel-Lindau disease tumor suppressor/Polycomb protein EED (O75530 whole entry): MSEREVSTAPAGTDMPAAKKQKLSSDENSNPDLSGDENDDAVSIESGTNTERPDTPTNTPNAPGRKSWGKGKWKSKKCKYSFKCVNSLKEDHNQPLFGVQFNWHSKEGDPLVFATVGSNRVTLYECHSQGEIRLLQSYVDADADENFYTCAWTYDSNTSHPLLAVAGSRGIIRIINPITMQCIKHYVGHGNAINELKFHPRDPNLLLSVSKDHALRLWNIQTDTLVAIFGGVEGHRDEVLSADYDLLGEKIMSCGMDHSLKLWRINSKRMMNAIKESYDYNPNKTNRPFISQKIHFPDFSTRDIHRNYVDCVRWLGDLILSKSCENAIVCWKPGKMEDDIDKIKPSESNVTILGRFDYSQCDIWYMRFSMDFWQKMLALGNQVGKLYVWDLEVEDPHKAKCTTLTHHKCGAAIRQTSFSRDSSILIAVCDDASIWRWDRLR
Sequence of von Hippel-Lindau disease tumor suppressor/Polycomb protein EED (P40337 whole entry): as the sequence (P40337 whole entry, looked up) above

[7] = target: von Hippel-Lindau disease tumor suppressor/Histone-lysine N-methyltransferase EZH2 (Homo sapiens, UniProt Q15910+P40337); assay: PROTAC activity at VHL/EZH2 in human KARPAS-422 cells assessed as degradation of EZH2 protein expression by Western blotting analysis; type: cell-based
Sequence of von Hippel-Lindau disease tumor suppressor/Histone-lysine N-methyltransferase EZH2 (Q15910 whole entry, the tested form may be a part): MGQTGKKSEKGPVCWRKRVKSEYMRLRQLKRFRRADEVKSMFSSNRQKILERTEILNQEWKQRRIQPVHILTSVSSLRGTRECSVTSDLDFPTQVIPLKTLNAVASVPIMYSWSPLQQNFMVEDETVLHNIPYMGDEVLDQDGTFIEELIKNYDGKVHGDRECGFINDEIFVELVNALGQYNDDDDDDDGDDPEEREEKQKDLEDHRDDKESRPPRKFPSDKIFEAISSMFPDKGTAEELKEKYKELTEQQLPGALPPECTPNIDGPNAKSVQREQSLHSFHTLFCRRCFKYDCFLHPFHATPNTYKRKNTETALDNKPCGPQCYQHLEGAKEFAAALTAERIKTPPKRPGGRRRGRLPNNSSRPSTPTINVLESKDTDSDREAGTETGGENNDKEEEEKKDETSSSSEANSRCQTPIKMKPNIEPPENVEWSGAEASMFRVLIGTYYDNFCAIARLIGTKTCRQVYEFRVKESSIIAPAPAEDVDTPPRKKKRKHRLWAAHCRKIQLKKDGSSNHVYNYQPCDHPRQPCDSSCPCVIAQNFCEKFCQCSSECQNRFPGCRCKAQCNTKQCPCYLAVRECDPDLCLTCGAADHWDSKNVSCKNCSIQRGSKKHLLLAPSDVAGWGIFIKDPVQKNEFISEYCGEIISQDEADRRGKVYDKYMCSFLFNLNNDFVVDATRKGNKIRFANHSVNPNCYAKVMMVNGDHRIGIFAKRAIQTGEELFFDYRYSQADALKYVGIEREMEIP
Sequence of von Hippel-Lindau disease tumor suppressor/Histone-lysine N-methyltransferase EZH2 (P40337 whole entry, the tested form may be a part): as the sequence (P40337 whole entry, looked up) above

Polycomb protein EED = Polycomb protein EED (Homo sapiens, UniProt O75530); assay: Binding affinity to EED (75 to 441 residues) (unknown origin) expressed in Escherichia coli BL21 (DE3) assessed as dissociation constant by isothermal titration calorimetry
Sequence of Polycomb protein EED (O75530 whole entry, the tested form may be a part): as the sequence (O75530 whole entry) above

[8] = target: T1, von Hippel-Lindau disease tumor suppressor/Polycomb complex protein BMI-1 (Homo sapiens); assay: PROTAC activity at […] in human 786-0 cells with defective VHL assessed as degradation of BMI1 protein expression at 10 uM incubated for 24 hrs by Western blotting analysis; type: cell-based
[9] = target: T2, Protein cereblon/E3 ubiquitin-protein ligase RING2; assay: PROTAC activity at CRBN/RING1B in human 786-0 cells with defective VHL assessed as degradation of RING1B protein expression at 10 uM incubated for 24 hrs by Western blotting analysis; type: cell-based
786-0 [10] = assay: Induction of PRC2 degradation in human 786-0 cells with defective VHL assessed as reduction of H3K27me3 chromatin mark at 10 uM incubated for 24 hrs by Western blotting analysis; type: cell-based
786-0 [11] = assay: Induction of PRC1 degradation in human 786-0 cells with defective VHL assessed as reduction of H2AK119ub chromatin mark at 10 uM incubated for 24 hrs by Western blotting analysis; type: cell-based
786-0 [12] = assay: Antiproliferative activity against human 786-0 cells assessed as inhibition of cell growth at 0.5 to 30 uM incubated for 7 days by WST-8 assay; type: functional, cell-based; details: dose 0.5-30 µM, time 7.0 day
K562 [13] = assay: Antiproliferative activity against human K562 cells assessed as increase in HoxA mRNA expression at 10 uM incubated for 24 hrs by RT-qPCR analysis; type: functional, cell-based
K562 [14] = assay: Antiproliferative activity against human K562 cells assessed as increase in HoxD mRNA expression at 10 uM incubated for 24 hrs by RT-qPCR analysis; type: functional, cell-based
PC-3M [15] = assay: Induction of PRC2 degradation in human PC-3M cells assessed as reduction of H3K27me3 chromatin mark at 0.2 to 5 uM incubated for 24 hrs by Western blotting analysis; type: cell-based; details: dose 0.2-5 µM
PC-3M [16] = assay: Induction of PRC1 degradation in human PC-3M cells assessed as reduction of H2AK119ub chromatin mark at 0.2 to 5 uM incubated for 24 hrs by Western blotting analysis; type: cell-based; details: dose 0.2-5 µM
MDA-MB-468 [17] = assay: Induction of PRC2 degradation in human MDA-MB-468 cells assessed as reduction of H3K27me3 chromatin mark at 0.2 to 5 uM incubated for 24 hrs by Western blotting analysis; type: cell-based; details: dose 0.2-5 µM
MDA-MB-468 [18] = assay: Induction of PRC1 degradation in human MDA-MB-468 cells assessed as reduction of H2AK119ub chromatin mark at 0.2 to 5 uM incubated for 24 hrs by Western blotting analysis; type: cell-based; details: dose 0.2-5 µM
[19] = target: T1, von Hippel-Lindau disease tumor suppressor/Polycomb complex protein BMI-1 (Homo sapiens); assay: PROTAC activity at […] in human PC-3M cells assessed as degradation of BMI1 protein expression at 0.2 to 5 uM incubated for 24 hrs by Western blotting analysis; type: cell-based; details: dose 0.2-5 µM
[20] = target: T2, Protein cereblon/E3 ubiquitin-protein ligase RING2; assay: PROTAC activity at CRBN/RING1B in human PC-3M cells assessed as degradation of RING1B protein expression at 0.2 to 5 uM incubated for 24 hrs by Western blotting analysis; type: cell-based; details: dose 0.2-5 µM
[21] = target: T3, Protein cereblon/Polycomb protein EED (Homo sapiens, UniProt O75530+Q96SW2); assay: PROTAC activity at CRBN/EED in human PC-3M cells assessed as degradation of EED protein expression at 0.2 to 5 uM incubated for 24 hrs by Western blotting analysis; type: cell-based; details: dose 0.2-5 µM
T3 sequence (O75530 2-441 limits assumed): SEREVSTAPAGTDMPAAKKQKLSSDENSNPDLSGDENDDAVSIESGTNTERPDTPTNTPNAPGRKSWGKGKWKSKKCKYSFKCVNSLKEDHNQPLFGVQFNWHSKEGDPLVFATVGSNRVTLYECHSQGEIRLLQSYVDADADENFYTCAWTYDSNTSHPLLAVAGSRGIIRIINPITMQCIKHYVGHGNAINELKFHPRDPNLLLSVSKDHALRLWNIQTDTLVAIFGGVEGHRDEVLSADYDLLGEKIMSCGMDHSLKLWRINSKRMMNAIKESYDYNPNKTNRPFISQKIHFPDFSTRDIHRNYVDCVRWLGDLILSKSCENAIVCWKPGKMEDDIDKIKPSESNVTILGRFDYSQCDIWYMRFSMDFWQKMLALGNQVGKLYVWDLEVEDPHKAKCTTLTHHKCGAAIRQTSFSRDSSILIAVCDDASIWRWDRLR
T3 sequence (Q96SW2 whole entry partner): as the sequence (Q96SW2 whole entry) above

[22] = target: T4, Protein cereblon/Histone-lysine N-methyltransferase EZH2 (Homo sapiens) (UniProt Q15910+Q96SW2); assay: PROTAC activity at CRBN/EZH2 in human PC-3M cells assessed as degradation of EZH2 protein expression at 0.2 to 5 uM incubated for 24 hrs by Western blotting analysis; type: cell-based; details: dose 0.2-5 µM
T4 sequence (Q15910 whole entry, looked up): as the sequence (Q15910 whole entry, the tested form may be a part) above
T4 sequence (Q96SW2 whole entry, looked up): as the sequence (Q96SW2 whole entry) above

[23] = target: T5, Protein cereblon/Polycomb protein SUZ12 (Homo sapiens) (UniProt Q15022+Q96SW2); assay: PROTAC activity at CRBN/SUZ12 in human PC-3M cells assessed as degradation of SUZ12 protein expression at 0.2 to 5 uM incubated for 24 hrs by Western blotting analysis; type: cell-based; details: dose 0.2-5 µM
T5 sequence (Q15022 whole entry, looked up): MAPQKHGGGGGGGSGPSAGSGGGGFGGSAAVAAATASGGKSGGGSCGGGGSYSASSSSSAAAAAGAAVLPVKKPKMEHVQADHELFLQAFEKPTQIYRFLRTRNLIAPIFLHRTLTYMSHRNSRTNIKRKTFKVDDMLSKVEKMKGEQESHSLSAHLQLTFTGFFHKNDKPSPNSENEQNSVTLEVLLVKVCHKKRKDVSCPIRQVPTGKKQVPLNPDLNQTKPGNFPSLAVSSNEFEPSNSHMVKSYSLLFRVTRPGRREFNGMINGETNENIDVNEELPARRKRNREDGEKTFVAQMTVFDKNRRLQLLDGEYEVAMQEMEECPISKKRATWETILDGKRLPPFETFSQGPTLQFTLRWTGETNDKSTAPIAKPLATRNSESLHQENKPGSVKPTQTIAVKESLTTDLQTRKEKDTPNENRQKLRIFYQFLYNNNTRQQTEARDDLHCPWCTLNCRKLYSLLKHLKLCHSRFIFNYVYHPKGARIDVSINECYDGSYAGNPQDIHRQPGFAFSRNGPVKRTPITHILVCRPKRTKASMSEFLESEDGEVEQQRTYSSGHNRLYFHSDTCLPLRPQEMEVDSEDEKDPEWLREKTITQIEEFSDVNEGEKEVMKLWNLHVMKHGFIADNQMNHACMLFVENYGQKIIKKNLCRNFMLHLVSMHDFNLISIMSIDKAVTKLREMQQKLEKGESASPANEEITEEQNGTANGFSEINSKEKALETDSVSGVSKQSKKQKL
T5 sequence (Q96SW2 whole entry, looked up): as the sequence (Q96SW2 whole entry) above

[24] = target: T1, von Hippel-Lindau disease tumor suppressor/Polycomb complex protein BMI-1 (Homo sapiens); assay: PROTAC activity at […] in human MDA-MB-468 cells assessed as degradation of BMI1 protein expression at 0.2 to 5 uM incubated for 24 hrs by Western blotting analysis; type: cell-based; details: dose 0.2-5 µM
[25] = target: T2, Protein cereblon/E3 ubiquitin-protein ligase RING2; assay: PROTAC activity at CRBN/RING1B in human MDA-MB-468 cells assessed as degradation of RING1B protein expression at 0.2 to 5 uM incubated for 24 hrs by Western blotting analysis; type: cell-based; details: dose 0.2-5 µM
[26] = target: T3, Protein cereblon/Polycomb protein EED; assay: PROTAC activity at CRBN/EED in human MDA-MB-468 cells assessed as degradation of EED protein expression at 0.2 to 5 uM incubated for 24 hrs by Western blotting analysis; type: cell-based; details: dose 0.2-5 µM
[27] = target: T4, Protein cereblon/Histone-lysine N-methyltransferase EZH2 (Homo sapiens); assay: PROTAC activity at CRBN/EZH2 in human MDA-MB-468 cells assessed as degradation of EZH2 protein expression at 0.2 to 5 uM incubated for 24 hrs by Western blotting analysis; type: cell-based; details: dose 0.2-5 µM
[28] = target: T5, Protein cereblon/Polycomb protein SUZ12 (Homo sapiens); assay: PROTAC activity at CRBN/SUZ12 in human MDA-MB-468 cells assessed as degradation of SUZ12 protein expression at 0.2 to 5 uM incubated for 24 hrs by Western blotting analysis; type: cell-based; details: dose 0.2-5 µM

Row | Compound | Activity [1] | Activity [2] | DC50 [6] [nM] | DC50 [7] [nM] | Activity [8] | Activity [9] | Activity (K562 [3]) | Activity (K562 [5]) | Activity (K562 [13]) | Activity (K562 [14]) | Activity (PC-3M [15]) | Activity (PC-3M [16]) | Activity (MDA-MB-468 [17]) | Activity (MDA-MB-468 [18]) | other results
1 | Cc1ncsc1-c1ccc(CNC(=O)[C@@H]2C[C@@H](O)CN2C(=O)[C@@H](NC(=O)CCCNC(=O)c2ccc(-c3cnc(NCc4ccco4)n4cnnc34)cc2)C(C)(C)C)cc1 | inactive | inactive |  |  |  |  | Active | inactive |  |  |  |  |  |  | Activity (K562 [4]): inactive
2 | Cc1ncsc1-c1ccc(CNC(=O)[C@@H]2C[C@@H](O)CN2C(=O)[C@@H](NC(=O)CCCCCCNC(=O)CCCCN2CCN(c3ccc(-c4cnc(NCc5ccco5)n5cnnc45)cc3)CC2)C(C)(C)C)cc1 |  |  |  |  | inactive | inactive |  |  |  |  |  |  |  |  | Kd (Polycomb protein EED): 3000 nM; Activity (786-0 [10]): Active; Activity (786-0 [11]): Active; Activity (786-0 [12]): inactive

More lines, main results first:

Row | Activity [1] | Activity [2] | DC50 [6] [nM] | DC50 [7] [nM] | Activity [8] | Activity [9] | Compound | Activity (K562 [3]) | Activity (K562 [5]) | Activity (K562 [13]) | Activity (K562 [14]) | Activity (PC-3M [15]) | Activity (PC-3M [16]) | Activity (MDA-MB-468 [17]) | Activity (MDA-MB-468 [18]) | other results
3 |  |  | < 120 | < 1000 |  |  | Cc1nc(CCC(=O)NCCCC(=O)N[C@H](C(=O)N2C[C@H](O)C[C@H]2C(=O)NCc2ccc(-c3scnc3C)cc2)C(C)(C)C)ccc1-c1cnc(NCc2c(F)ccc3c2CCO3)n2cnnc12 |  |  |  |  |  |  |  |  | 
4 | inactive | inactive |  |  | inactive | inactive | CS(=O)(=O)c1ccc(-c2cnc(NCc3ccco3)n3cnnc23)cc1 | Active | inactive | inactive | inactive | Active | inactive | Active | inactive | 
5 | inactive | inactive | < 120 | < 120 |  |  | Cc1nc(CCC(=O)NCCOc2ccc(OCC(=O)N[C@H](C(=O)N3C[C@H](O)C[C@H]3C(=O)NCc3ccc(-c4scnc4C)cc3)C(C)(C)C)cc2)ccc1-c1cnc(NCc2c(F)ccc3c2CCO3)n2cnnc12 | Active | inactive | inactive | inactive | Active | inactive | Active | inactive | Activity [19]: inactive; Activity [20]: inactive; Activity [21]: Active; Activity [22]: Active; Activity [23]: Active; Activity [24]: inactive; Activity [25]: inactive; Activity [26]: Active; Activity [27]: Active; Activity [28]: Active
